Assay results from US12605418B2, “Chebulinic acid and its enriched fraction from the fruits of Terminalia chebula for treatment of benign prostatic hyperplasia (BPH) and its preparation thereof” (COUNCIL OF SCIENTIFIC AND INDUSTRIAL RESEARCH, priority 2020, dated 2026).
Entries after “also recorded” stand apart in the source; their conditions may differ.

Key:
Format in all cases: in vivo, male Sprague-Dawley (SD) rats
[1] = tested on: Testosterone-induced BPH rats; test: Prostate weight and prostate weight index (PI) in testosterone-induced BPH rat model; conditions: for Prostatic weight: BPH induced rats, vs induced group (FIGS. 3 and 6); for Prostate weight index (PI): oral once a day for 21 days, CA 100 mg/kg, CAEF 100/200 mg/kg, Finasteride 3 mg/kg, vs Testosterone induced group (FIG. 3)
Procedure: 12-14-week-old (3 month) male Sprague-Dawley (SD) rats with initial body weights of 200-220 g were taken from National Animal Laboratory Centre, CSIR-Central drug research institute (CDRI), Lucknow. The animals were maintained in conditions in accordance with the rules and regulation of animal ethical committee. These rats were housed in a pathogen-free room at 23±2° C. and a relative humidity of 70% with an alternating 12 h light/dark cycle. To assess the therapeutic effect of Chebulinic Acid (CA) and Chebulinic acid Enriched fraction (CAEF) on Benign Prostatic Hyperplasia (BPH), rat BPH model has been successfully generated by testosterone induction method. For model induction of BPH, Orchiectomy (Surgical removal of Testis) of rats was performed and then animals were left for ten days to recover. Now BPH was induced through the daily subcutaneous injections of Testosterone (5 mg/kg & 6.25 mg/ml in Corn Oil) at the inguinal region for 28 days continuously. While the treatment group received 7 days continuous administration of Testosterone and then Testosterone+CA (100 mg/kg B.W) or Testosterone+CAEF (100/200 mg/kg B.W.) or Testosterone+Finasteride (3 mg/kg) were administered orally once a day to these animals for next 21 days (FIG. 3). In another experiment the treatment group received 7 days continuous administration of Testosterone and then Testosterone+CAEF (100 mg/kg B.W.) administered orally once a day to these animals for next 4 weeks (group 1) 8 weeks (group 2) and 12 weeks (group 3) (FIG. 6). After that these animals were left for fasting overnight and sacrificed next day; their prostatic as well as other reproductive organs were dissected out. Portions of the prostatic ventral lobes were stored in 4% paraformaldehyde for histological and immuno-histochemical processing. Half of the remaining prostate tissue was stored in RNA later and the other half was stored at −80° C. for subsequent biochemical and molecular experiments. Blood samples were obtained from the caudal vena cava and collected in serum separating tubes. Testosterone induced BPH animal models were sacrificed after the simultaneous treatment of 21 days. The intact prostate tissue was dissected and removed carefully from these sacrificed animals. Now the prostate weight (PW) was measured and the prostate index (PI) was calculated as PW (mg)/Body Weight (gm)×100. Data were expressed as the mean±SEM of four animals per group (n=4 per group). The values were analysed using one-way analysis of variance. Values were considered statistically significant at p<0.05.

[2] = tested on: prostatic tissues in testosterone induced BPH rats; test: Histopathological examination (H&E) of prostate tissue in testosterone-induced BPH rats; conditions: for Histological conditions / architecture of the prostate: BPH induced rats (FIG. 4)
[3] = tested on: Prostate-Specific Antigen (PSA); test: PSA expression in prostate tissue and serum of BPH rats (western blot); conditions: three weeks, CA 100 mg/kg, CAEF 200 mg/kg, CAEF formulation 200 mg/kg
PSA = PSA level in serum of BPH rats (ELISA); conditions: summary statement, FIGS. 5 and 7
[4] = Testosterone serum level in BPH rats; conditions: BPH induced rats after treatment
anti-apoptotic markers = test: Anti-apoptotic markers in BPH rats (FIGS. 8-13, summary); conditions: summary of FIGS. 8-13
Procedure: (§1) To assess the therapeutic effect of Chebulinic Acid (CA) and Chebulinic acid Enriched fraction (CAEF) on Benign Prostatic Hyperplasia (BPH), rat BPH model has been successfully generated by testosterone induction method. For model induction of BPH, Orchiectomy (Surgical removal of Testis) of rats was performed and then animals were left for ten days to recover. Now BPH was induced through the daily subcutaneous injections of Testosterone (5 mg/kg & 6.25 mg/ml in Corn Oil) at the inguinal region for 28 days continuously. While the treatment group received 7 days continuous administration of Testosterone and then Testosterone+CA (100 mg/kg B.W) or Testosterone+CAEF (100/200 mg/kg B.W.) or Testosterone+Finasteride (3 mg/kg) were administered orally once a day to these animals for next 21 days (FIG. 3). In another experiment the treatment group received 7 days continuous administration of Testosterone and then Testosterone+CAEF (100 mg/kg B.W.) administered orally once a day to these animals for next 4 weeks (group 1) 8 weeks (group 2) and 12 weeks (group 3) (FIG. 6). After that these animals were left for fasting overnight and sacrificed next day; their prostatic as well as other reproductive organs were dissected out. Portions of the prostatic ventral lobes were stored in 4% paraformaldehyde for histological and immuno-histochemical processing. […]

[5] = tested on: Vascular endothelial growth factor (VEGF); test: Expression of VEGF in BPH induced rat model; conditions: within three weeks; vs non-treated induced BPH group; finasteride positive control
Procaspase 3 = test: Expression of Procaspase 3 in BPH induced rat model; conditions: vs induced animal model; finasteride positive control
[6] = tested on: Poly [ADP-ribose] polymerase 1 (PARP1); test: Expression of PARP1 in BPH induced rat model; conditions: vs BPH induced group; finasteride positive control
Procedure: as §1

| SMILES | Prostatic weight index compared with normal control group ([1]; 100/200 mg/kg dose (FIG. 3) and 100 mg/kg of CAEF (FIG. 6)) | Prostatic weight [1] | Prostatic weight ([1]; listed as Chebulinic acid) | Prostate weight index (PI) [1] | Development of prostatic hyperplasia ([1]; testosterone-induced BPH rats) | Histological conditions / architecture of the prostate [2] | Histological conditions / architecture of the prostate ([2]; listed as Chebulinic acid) | Glandular hyperplasia of the prostate (histopathological examination) ([2]; BPH rats) | Prostatic lumen area ([2]; H&E, CA/CAEF 100/200 mg/kg, vs Induced BPH group (FIG. 4)) | PSA expression in prostate tissue [3] | PSA expression in serum [3] | Level of PSA in sera (PSA) | Level of testosterone in sera [4] | Anti-apoptotic markers (anti-apoptotic markers) | Expression of VEGF [5] | Expression of Procaspase 3 (Procaspase 3) | Expression of PARP1 [6] |
| --- | --- | --- | --- | --- | --- | --- | --- | --- | --- | --- | --- | --- | --- | --- | --- | --- | --- |
| O=C(O)CC1C(=O)OC2C(COC(=O)c3cc(O)c(O)c(O)c3)OC(OC(=O)c3cc(O)c(O)c(O)c3)C(OC(=O)c3cc(O)c(O)c4c3C1C(O)C(=O)O4)C2OC(=O)c1cc(O)c(O)c(O)c1 [CA, 1.3,6-tri-O-galloyl-2,4-chebuloyl-beta-D-glucose] | quite close to the normal control group | reduced significantly; also recorded: significant reduction | decreased the prostate weight | significantly decreased; also recorded: reduced significantly | significantly suppressed; also recorded: suppressed the development of prostatic hyperplasia considerably | improved histological conditions | restored the altered histological architecture | mild glandular hyperplasia | increased prostatic lumen areas significantly | down-regulated | down-regulated | reduced level | reduced level | down-regulated | – | – | – |
| CC(C)(C)NC(=O)[C@H]1CC[C@H]2[C@@H]3CC[C@H]4NC(=O)C=C[C@]4(C)[C@H]3CC[C@]12C [Finasteride] | – | – | – | close to the 200 mg/kg CA/CAEF treated group | – | – | – | – | – | – | – | – | – | – | reduced expression | decreased expression | reduced expression |
